Source: patent US20040143025A1, “Carbon monoxide generating compunds for treatment of vascular, inflammatory and immune disorders” (priority 2002, published 2004)
Like-named read-outs stand apart in the source and are kept apart here.

Experiments:
[1] = system: HO-1; test: ELISA for HO-1 protein expression in liver; design: species or system rat; settings: ZnPP = pretreatment then CO perfusion; CO = CO only
Procedure: ELISA for HO-1 protein expression. Livers were homogenized on ice in a Tris-HCl lysis buffer (pH 7.4) containing 0.5% Triton X-100 and protease inhibitors. Flat-bottom microtiter 96-well plates (Nunc) were coated with 7 μg/ml anti-HO-1 mAb (OSA-111, Stressgen, Canada) in PBS for 18 h at room temperature. Unbound Ab was removed by washing (wash buffer: 0.05% Tween 20 in 50 mM phosphate buffer, pH 7.5) and remaining binding sites were blocked by incubation with a 5% BSA/PBS solution (1 h). Recombinant HO-1 (SPP-730) and tissue homogenate were diluted in assay diluent (0.5% BSA/0.05% Tween 20/PBS) and incubated in anti-HO-1 mAb coated wells for 1 h at room temperature. Subsequently, plates were washed three times with wash buffer and incubated with rabbit anti-HO-1 polyclonal antibody (SPA-895, Stressgen; diluted 1:1000 in assay diluent) for 30 min at room temperature. Bound rabbit IgG was detected with a donkey anti-rabbit (gG-HRP conjugate (711-035-152, Jackson Research Laboratories; diluted 1:8000 in assay diluent). Unbound secondary Ab was removed by washing and bound HRP was detected using 1 mg/ml OPD in substrate buffer (0.1% H2O2, 0.1 M citric acid, 0.2 M Na2HPO4, pH 5.0). The color reaction was stopped with 1 M HCl and the optical density at 490 nm was measured.

[2] = mice exposed to gaseous CO at 500 ppm
Procedure: To examine the effect of gaseous CO on the immune system, C57/BL6 mice (B6, Jackson Laboratory, Bar Harbor, Me.) were first exposed to 500 ppm CO in air (Praxair, Danbury, Conn.) for one hour in a sealed chamber before injection of lipopolysaccharide (LPS) (0.3 mg/kg, i.v., Sigma, St Louis, Mo.). After injection, they were exposed to another hour in the CO chamber. Blood samples were collected one hour after LPS injection (through the aortic artery) and the COHb level in whole blood was measured by a whole blood AVOXimeter 4000 (A-VOX Systems, San Antonio, Tex.). Serum samples were separated and were kept at −80° C. until analysis. Serum TNF-α was measured by sandwich ELISA (Biosource, Camarillo, Calif.).
To reveal the therapeutic potential of CO generators, methylene chloride (MC, Sigma, St. Louis, Mo.) was selected as a lead compound. Different concentrations of MC were prepared by using olive oil as a solvent. Mice were treated with MC at 5 mg/kg., 50 mg/kg, and 500 mg/kg, p.o., one hour before LPS administration.

[3] = system: rat liver; design: species or system Sprague Dawley (SD) rats
Description: Animals. Male Sprague Dawley (SD) rats weighing between 300-350 g (Harlan Sprague Dawley, Indianapolis, Ind.) were used. Animals were fed standard rodent chow and water and libitum and cared according to guidelines approved by the American Association of Laboratory Animal Care.
Isolated perfusion liver apparatus. An isolated perfusion liver apparatus was used, as described in Amersi et al., supra, and Maulik et al., Circulation 94:398-406 (1996). In brief, syngeneic rat blood, obtained for each experiment from four donor animals, was diluted to a hematocrit of 15% with Krebs Ringer Bicarbonate Buffer (mM: NaCl 118, KH2POF 1, MgSO4 0.9, CaCl2 2.5, dextrose 11.1, and NaHCO2 25), and maintained at pH of 7.4. The perfusate was pumped from a heated reservoir that warmed the perfusate to 37° C. through silastic tubing oxygenator connected to a flow meter that measured portal vein blood flow (Cole Palmer Instruments, Chicago, Ill.). Portal pressure was kept constant via a pressure monometer connected to a T fitting in the portal vein canula. […] During the experiment, pH, temperature and oxygenation were kept constant.
Ex vivo cold ischemia model. SD rats underwent isoflourane anesthesia and systemic heparinization. […] The livers were then stored for 24 h at 4° C. in UW solution, followed by ex-vivo reperfusion for 1-2 h on an isolated perfusion liver apparatus. Portal vein blood flow, pressure, and bile production were recorded every 30 min. Blood samples were collected at 30 min intervals and serum glutamic oxaloacetic transaminase (sGOT) levels were measured using an autoanalyzer from ANTECH Diagnostics (Irvine, Calif.). At the conclusion of experiment, a portion of the liver was snap frozen for mRNA extraction/Western blot analyses; the remaining samples were fixed in formalin for H&E staining.
The role of CO—HO-1 pathway in hepatic I/R injury was studied in five major treatment groups (n=4.8 rats/group). In Group 1, the extent of I/R injury was contrasted between livers perfused ex-vivo with blood saturated with CO (300 parts per million [ppm]; 0.03% balanced air) vs. air alone (21% O2). As NO may enhance HO-1 expression (Brouard et al., supra), we then investigated a link between the two gaseous molecules in Group 2 livers, which were perfused with CO supplemented with 25 mM NG-nitro-L-arginine methyl ester hydrochloride (L-NAME; Sigma Chemicals, St. Louis, Mo.), an inducible NO inhibitor. […] To analyze as to whether exogenous CO can substitute for HO-1 in preventing I/R insult, Group 4 rats were treated 24 h prior to liver procurement with ZnPP)(1.5 mg/kg/i.p; Porphyrin Products, Logan Utah), an HO-1 inhibitor, followed by ex vivo perfusion with CO. […] Brouard et al., supra. Therefore, Group 5 rats were pre-treated 60 min before harvest with p38 MAPK inhibitor, SB203580, a pyridinyl imidazol (25 mg/kg orally; Sigma). In addition, prior to reperfursion with CO, SB203580 (20 μM) was added to the perfusate.

[4] = system: HO-1; test: HO-1 enzymatic activity in liver homogenates; type: biochemical, rat; settings: liver after perfusion; ZnPP = 1.5 mg/kg i.p. 24 h before harvest then CO perfusion; CO = CO only
Procedure: HO-1 Enzymatic Activity. Livers were homogenized on ice in a Tris-HCl lysis buffer (pH 7.4) containing 0.5% Triton X-100 and protease inhibitors. Samples were frozen in small aliquots until use. Homogenates (100 μl) were mixed with 0.8 mM NADPH, 0.8 mM glucose-6-phosphate 1.0 unit G-60P dehydrogenase, 1 mM MgCl2 and […] purified rat liver biliverdin reductase at 4° C. The reaction was initiated by the addition of hemin (final concentration 0.25 mM). The reaction mixture was incubated at 37° C. in the dark for 15 min. At the end of incubation period, any insoluble material was removed by centrifugation and supernatants were analyzed for bilirubin concentration. An extinction coefficient of 40 mM^−1 cm^−1 at A 460-530 was used to calculate the amount of bilirubin formed. Controls included naive samples in the absence of the NADPH generating system and all the ingredients of the reaction mixture in the absence of graft homogenates. Biliverdin reductase was purified from rat liver, as described in Browne and Ultrich, Mol. Pharmacol. 32:497-504 (1987).

[5] = 24 h cold storage, 2 h reperfusion, CO 300 ppm vs air alone

[C-]#[O+] [CO, carbon monoxide]
HO-1 protein expression in liver samples (ELISA) [1]: 7.51±2.13 ng of HO-1/mg lysate
O2Hb levels [2]: 79.18±1.569%
bile production [3, 5]: significantly more bile
portal vein resistance [3, 5]: significantly decreased
sGOT levels ([3]; CO 300 ppm alone, 2 h reperfusion): 163±27 IU/L
sGOT levels ([3]; CO 300 ppm, 1 h reperfusion): 79±14 IU/L
HO-1 enzyme activity [4]: 2.25±0.18 nmol of bilirubin/mg/protein/min
